# Source: patent US20230056846A1, “METHODS AND COMPOSITIONS FOR CANCER IMMUNOTHERAPY” (MEMORIAL SLOAN KETTERING CANCER CENTER, priority 2020, published 2023)
# Columns and labels:
# CT26 MSH2-/- MMRd cells = assay: viability assay of MMR-deficient MSH2 KO CT26 cells; type: cell-based, mouse; details: MSH2 KO cells compared with parental CT26
# CT26 colon cancer cells = assay: pre-treated CT26 cells implanted in mice randomized to anti PD-1 or IgG isotype control; type: in vivo, mouse
# Description: FIGS. 4A-B. Treatment of colon cancer cells with TMZ and cisplatin induces a high frameshift load leading to the spontaneous immuno-rejection of tumors in a preclinical mouse model. FIG. 4A. […] Treatment with either anti PD-1 or the IgG isotype control was commenced when the tumors reached a volume of 200 mm^3. […] The MSH2 KO cell line was used as a positive control for PD-1 blockade. FIG. 4B. Tumors were subjected to whole exome sequencing at 250x and immunoediting was studied by comparing mutation losses before and after engraftment.
# Experiments were performed to examine the effect of PD-1 blockade on the growth of tumors generated following injection of mice with tumor cells that had been pre-treated with either a vehicle control, TMZ alone, cisplatin alone, or TMZ/CDDP combination. 1 million cells from control or treatment groups (pre-treated for 8 weeks) were implanted subcutaneously into mice (n=10) and mice were then randomly assigned to either an anti PD-1 treatment group (treated with anti PD-1 at 6 mg/kg twice weekly when tumor reached 200 mm^3) or an IgG isotype control group. CT26 MSH2 KO cells were used as a positive control (FIG. 4). […] For tumors generated following injection of cells pre-treated with the combination of both temozolomide and cisplatin, out of 10 implanted tumors only one was not rejected (9 out of 10 were rejected). […]
# [1] = system: CT26 colon cancer cell line
# Description: CT26 cells were treated for 8 weeks by low dose TMZ, CDDP or TMZ/CDDP combination (drugs were removed one week before the experiment).
structure (smiles),measurement,setting,value
"[NH2][Pt]([NH2])([Cl])[Cl] [CDDP, cisplatin]",cytotoxicity,CT26 MSH2-/- MMRd cells,Higher activity
same,effect of PD-1 blockade compared with isotype control on tumors from pre-treated cells,CT26 colon cancer cells; anti PD-1 6 mg/kg twice weekly from 200 mm^3,no effect of PD-1 blockade
same,tumor growth compared to control,"CT26 colon cancer cells; cells pre-treated 8 weeks, 1 week wash out",no significant difference in tumor growth compared to control
same,sensitivity of CT26 cells to single agent,[1],sensitive
